pIC50: −log10 of the molar value.

In the test the target is T1, human full-length MKNK1 (Homo sapiens, UniProt Q9BUB5, T385D).
T1 construct: GST (N); purchased Carna Biosciences 02-145; host or cells: insect cells (baculovirus expression system)
T1 sequence (Q9BUB5 1-424 isoform Q9BUB5-2 T344D): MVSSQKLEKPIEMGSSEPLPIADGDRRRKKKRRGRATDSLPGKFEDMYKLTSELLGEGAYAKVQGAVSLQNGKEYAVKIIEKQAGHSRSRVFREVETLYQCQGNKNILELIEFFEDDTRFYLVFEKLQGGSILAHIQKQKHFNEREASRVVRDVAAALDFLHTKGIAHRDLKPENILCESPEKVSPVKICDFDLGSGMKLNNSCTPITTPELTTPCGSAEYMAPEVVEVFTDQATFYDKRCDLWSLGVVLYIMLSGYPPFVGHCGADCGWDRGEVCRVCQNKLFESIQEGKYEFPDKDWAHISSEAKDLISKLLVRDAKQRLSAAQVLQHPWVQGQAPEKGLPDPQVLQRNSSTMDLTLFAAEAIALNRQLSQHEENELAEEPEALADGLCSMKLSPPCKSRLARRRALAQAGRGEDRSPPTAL
In words: MKNK1 kinase high ATP assay (TR-FRET). The test is classed as biochemical. The note with it: high ATP (2 mM final), 15 min preincubation with enzyme. The method, then:
MKNK1-inhibitory activity at high ATP of compounds of the present invention after their preincubation with MKNK1 was quantified employing the TR-FRET-based MKNK1 high ATP assay as described in the following paragraphs.
A recombinant fusion protein of Glutathione-S-Transferase (GST, N-terminally) and human full-length MKNK1 (amino acids 1-424 and T344D of accession number BAA 19885.1), expressed in insect cells using baculovirus expression system and purified via glutathione sepharose affinity chromatography, was purchased from Carna Biosciences (product no 02-145) and used as enzyme. As substrate for the kinase reaction the biotinylated peptide biotin-Ahx-IKKRKLTRRKSLKG (C-terminus in amide form) was used, which can be purchased e.g. from the company Biosyntan (Berlin-Buch, Germany).
For the assay 50 nL of a 100 fold concentrated solution of the test compound in DMSO was pipetted into a black low volume 384 well microtiter plate (Greiner Bio-One, Frickenhausen, Germany), 2 μL of a solution of MKNK1 in aqueous assay buffer [50 mM HEPES pH 7.5, 5 mM MgCl2, 1.0 mM dithiothreitol, 0.005% (v/v) Nonidet-P40 (Sigma)] was added and the mixture was incubated for 15 min at 22° C. to allow pre-binding of the test compounds to the enzyme before the start of the kinase reaction. Then the kinase reaction was started by the addition of 3 μL of a solution of adenosine-tri-phosphate (ATP, 3.3 mM=>final conc. in the 5 μL assay volume is 2 mM) and substrate (0.1 μM=>final conc. in the 5 μL assay volume is 0.06 μM) in assay buffer and the resulting mixture was incubated for a reaction time of 30 min at 22° C. The concentration of MKNK1 was adjusted depending of the activity of the enzyme lot and was chosen appropriate to have the assay in the linear range, typical concentrations were in the range of 0.003 μg/mL. The reaction was stopped by the addition of 5 μL of a solution of TR-FRET detection reagents (5 nM streptavidine-XL665 [Cisbio Bioassays, Codolet, France] and 1 nM anti-ribosomal protein S6 (pSer236)-antibody from Invitrogen [#44921G] and 1 nM LANCE EU-W1024 labeled ProteinG [Perkin-Elmer, product no. AD0071]) in an aqueous EDTA-solution (100 mM EDTA, 0.1% (w/v) bovine serum albumin in 50 mM HEPES pH 7.5).
The resulting mixture was incubated for 1 h at 22° C. to allow the formation of complex between the phosphorylated biotinylated peptide and the detection reagents. Subsequently the amount of phosphorylated substrate was evaluated by measurement of the resonance energy transfer from the Eu-chelate to the streptavidine-XL. Therefore, the fluorescence emissions at 620 nm and 665 nm after excitation at 350 nm were measured in a TR-FRET reader, e.g. a Rubystar (BMG Labtechnologies, Offenburg, Germany) or a Viewlux (Perkin-Elmer). The ratio of the emissions at 665 nm and at […] was taken as the measure for the amount of phosphorylated substrate. The data were normalised (enzyme reaction without inhibitor=0% inhibition, all other assay components but no enzyme=100% inhibition).
The pIC50 is −log10 of the IC50, conventionally taken in molar units. Regarding `CCCc1[nH]c2ncnc(Nc3ccc4[nH]ncc4c3)c2c1CC` [Example 34, 5-Ethyl-N-(1H-indazol-5-yl)-6-propyl-7H-pyrrolo[2,3-d]pyrimidin-4-amine], the pIC50 was 7.89.

For `O=C(c1[nH]c2ncnc(Nc3ccc4[nH]ncc4c3)c2c1Br)N1CCCCC1` [Example 45, [5-Bromo-4-(1H-indazol-5-ylamino)-7H-pyrrolo[2,3-d]pyrimidin-6-yl](piperidin-1-yl)methanone], the pIC50 was 7.35. Against the preceding compound, the pIC50 is 0.54 log units lower.

Consider `c1cncc(-c2c[nH]c3ncnc(Nc4ccc5[nH]ncc5c4)c23)c1` [Example 13, N-(1H-Indazol-5-yl)-5-(pyridin-3-yl)-7H-pyrrolo[2,3-d]pyrimidin-4-amine], for which the pIC50 was 8.05.

For the compound `C=C(C)c1cc2c(Nc3ccc4[nH]ncc4c3)ncnc2[nH]1` [Example 8, N-(1H-indazol-5-yl)-6-(prop-1-en-2-yl)-7H-pyrrolo[2,3-d]pyrimidin-4-amine], the pIC50 was 8.40. Compared with the last compound, the pIC50 is 0.35 log units higher.

On to `Clc1cc2c(Nc3ccc4[nH]ncc4c3)ncnc2[nH]1` [Example 28, 6-Chloro-N-(1H-indazol-5-yl)-7H-pyrrolo[2,3-d]pyrimidin-4-amine], for which the pIC50 is 7.49.

As for `C=Cc1cc2c(Nc3ccc4[nH]ncc4c3)ncnc2[nH]1` [Example 9, 6-Ethenyl-N-(1H-indazol-5-yl)-7H-pyrrolo[2,3-d]pyrimidin-4-amine], the pIC50 was 8.15.

Regarding `O=C(c1[nH]c2ncnc(Nc3ccc4[nH]ncc4c3)c2c1Br)N1CCOCC1` [Example 44, [5-Bromo-4-(1H-indazol-5-ylamino)-7H-pyrrolo[2,3-d]pyrimidin-6-yl](morpholin-4-yl)methanone], the pIC50 was 7.32.

For `O=S(=O)(c1ccccc1)c1cc2c(Nc3ccc4[nH]ncc4c3)ncnc2[nH]1` [Example 36, N-(1H-Indazol-5-yl)-6-(phenylsulfonyl)-7H-pyrrolo[2,3-d]pyrimidin-4-amine], the pIC50 was 9.00.

Take `CS(=O)(=O)c1cc2c(Nc3ccc4[nH]ncc4c3)ncnc2[nH]1` [Example 5, N-(1H-Indazol-5-yl)-6-(methylsulfonyl)-7H-pyrrolo[2,3-d]pyrimidin-4-amine]: the pIC50 was 7.96. This pIC50 is 1.04 log units lower than that of the compound before.

Source of the values: patent US20150218173A1, “SUBSTITUTED INDAZOL-PYRROLOPYRIMIDINES USEFUL IN THE TREATMENT OF HYPERFOLIFERATIVE DISORDERS” (BAYER PHARMA AKTIENGESELLSCHAFT, priority 2012, published 2015).
